Assays:
female Wistar rat = experiment: Animal test in vivo: average food consumption (appetite inhibition); details: for Average food consumptions: Table 4, positive control 15 mg/kg, wilfosides 50 mg/kg; for average food consumptions compared with the blank control group (in words): during the administration of the drugs, crude extract 300 mg/kg, pure glycosides 50 mg/kg
Experimental: (§1) 6-7 weeks-old female Wistar rat (purchased from Shanghai Laboratory Animal Center of Chinese Academy of Sciences)(weight: 110-150 g) was raised alone in suspended metal cage. After the experimental rat was obtained, it was checked to make sure whether they were abnormal or had obvious disease signs. The rat can freely obtain the drinking-water and feed for rodent (RM1(E)AQC). The feeding cage was controlled to receive 12 h illumination (from 07:00 to 19:00) and to be in a dark environment for 12 h, and the room temperature and relative humidity were controlled to be 21±3° C. and 55±15% respectively and not to deviate the upper and lower limit. The rats were randomly divided into groups depending on the body weight according to random number table to make the average weight in each group are approximately equal. Before the test, the rats were pre-trained suitably for one week (from −7th day to −1st day) during which the consumptions of feed and drinking water were recorded.
(§2) Each group of drug to be tested, positive control group, and blank control group consisted of 5 rats, respectively. The tested drug and positive control drug were mixed with wheaten starch before the administration and formulated to suspension with required doses according to 10 mL/kg of administration volume. The positive control drug was sibutramine hydrochloride and the administration dosage was 15 mg/kg body weight. In the blank control group, only equal amount of starch was used to formulate suspension for administration by […] in a same volume. The administration time is the 1st day, 2nd day and 3rd day. The body weight of the rat, the consumption of the feed (the weight of the feeding hopper) and consumption of the drinking water (bottle weight) were recorded from the −7th day to the 7th day.

[1] = Animal test in vivo: average body weight; set-up: species or system rat; details: for Average body weight: Table 6, positive control 15 mg/kg, wilfosides 50 mg/kg; for body weight compared with the blank control group (in words): during the administration of the drugs, crude extract 300 mg/kg, pure glycosides 50 mg/kg
Experimental: as §1, §2

[2] = 4th day (after administration on days 1-3)
[3] = 5th day (after administration on days 1-3)
[4] = 6th day (after administration on days 1-3)
[5] = 7th day (after administration on days 1-3)
[6] = −1st day (before administration)
[7] = −2nd day (before administration)
[8] = −3rd day (before administration)
[9] = −4th day (before administration)
[10] = −5th day (before administration)
[11] = −6th day (before administration)
[12] = −7th day (before administration)

| SMILES | Average food consumptions (female Wistar rat; 1st day (administration day)) [g] | Average food consumptions (female Wistar rat; 2nd day (administration day)) [g] | Average food consumptions (female Wistar rat; 3rd day (administration day)) [g] | Average food consumptions (female Wistar rat; [2]) [g] | Average food consumptions (female Wistar rat; [3]) [g] | Average food consumptions (female Wistar rat; [4]) [g] | Average food consumptions (female Wistar rat; [5]) [g] | average food consumptions compared with the blank control group (in words) (female Wistar rat) | Average food consumptions (female Wistar rat; [6]) [g] | Average food consumptions (female Wistar rat; [7]) [g] | Average food consumptions (female Wistar rat; [8]) [g] | Average food consumptions (female Wistar rat; [9]) [g] | Average food consumptions (female Wistar rat; [10]) [g] | Average food consumptions (female Wistar rat; [11]) [g] | Average food consumptions (female Wistar rat; [12]) [g] | Average body weight ([1]; 1st day (administration day)) [g] | Average body weight ([1]; 2nd day (administration day)) [g] | Average body weight ([1]; 3rd day (administration day)) [g] | Average body weight [1, 2] [g] | Average body weight [1, 3] [g] | other results |
| --- | --- | --- | --- | --- | --- | --- | --- | --- | --- | --- | --- | --- | --- | --- | --- | --- | --- | --- | --- | --- | --- |
| CO[C@H]1C[C@H](O[C@H]2[C@@H](OC)C[C@H](O[C@H]3CC[C@@]4(C)C(=CC[C@]5(O)[C@@H]4C[C@@H](OC(=O)/C=C/c4ccccc4)[C@@]4(C)[C@]5(O)CC[C@@]4(O)C(C)=O)C3)O[C@@H]2C)O[C@@H](C)[C@H]1O[C@H]1C[C@H](OC)[C@H](O[C@H]2C[C@@H](OC)[C@@H](O)[C@H](C)O2)[C@@H](C)O1 [Wilfoside K1N, wilfoside K1N] | 2.8 | 6.4 | 2.8 | 8.4 | 9.2 | 13.6 | 14.8 | greatly different from those in the blank group | 13.2 | 13.6 | 13.2 | 14.4 | 14.8 | 10.8 | 7.6 | 136.4 | 134.4 | 130.4 | 134.2 | 136.8 | Average body weight [1, 4]: 139.2 g; Average body weight [1, 5]: 144 g; body weight compared with the blank control group (in words) [1]: greatly different from those in the blank group; Average body weight [1, 6]: 148.8 g; Average body weight [1, 7]: 146.4 g; Average body weight [1, 8]: 143.6 g; Average body weight [1, 9]: 141.6 g; Average body weight [1, 10]: 140 g; Average body weight [1, 11]: 137.6 g; Average body weight [1, 12]: 134.8 g |
| CO[C@H]1C[C@H](O[C@H]2[C@@H](OC)C[C@H](O[C@H]3CC[C@@]4(C)C(=CC[C@]5(O)[C@@H]4C[C@@H](OC(=O)/C=C(\C)C(C)C)[C@@]4(C)[C@]5(O)CC[C@@]4(O)C(C)=O)C3)O[C@@H]2C)O[C@@H](C)[C@H]1O[C@H]1C[C@H](OC)[C@H](O[C@H]2C[C@@H](OC)[C@@H](O)[C@H](C)O2)[C@@H](C)O1 [Wilfoside C1N, wilfoside C1N] | 11.6 | 8.8 | 3.6 | 11.6 | 15.6 | 13.6 | 15.6 | greatly different from those in the blank group | 13.6 | 14 | 13.2 | 13.2 | 14.8 | 10.8 | 8.4 | 152 | 146.8 | 141.6 | 149.2 | 154 | Average body weight [1, 4]: 155.2 g; Average body weight [1, 5]: 157.2 g; body weight compared with the blank control group (in words) [1]: no great differences; Average body weight [1, 6]: 154 g; Average body weight [1, 7]: 151.4 g; Average body weight [1, 8]: 148.4 g; Average body weight [1, 9]: 146.8 g; Average body weight [1, 10]: 144.4 g; Average body weight [1, 11]: 142 g; Average body weight [1, 12]: 140.6 g |
